Drawing on article PMC8173106, “Modulating Enzyme Function via Dynamic Allostery within Biliverdin Reductase B” (Frontiers in Molecular Biosciences, 2021), this text covers KD for one compound.

The structures appear in SMILES notation.

This test addresses T1, human BLVRB (biliverdin reductase B) (Homo sapiens, UniProt P30043).
T1 construct: full length, 206 residues; codon-optimised, pET21b (T164S in pJ401k); N-terminal 6xHis tag removed with thrombin
T1 sequence (P30043 1-206): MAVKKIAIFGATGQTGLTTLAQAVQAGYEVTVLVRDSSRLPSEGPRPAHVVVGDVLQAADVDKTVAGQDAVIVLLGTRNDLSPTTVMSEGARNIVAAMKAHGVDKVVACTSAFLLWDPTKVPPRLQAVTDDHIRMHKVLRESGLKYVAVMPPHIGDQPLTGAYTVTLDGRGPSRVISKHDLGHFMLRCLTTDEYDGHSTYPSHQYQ
Briefly: isothermal titration calorimetry. The test is classed as binding. The note with it: 50 mM bis-tris, pH 6.5, 50 mM NaCl, 20 C; apo enzyme. For orientation: Isothermal titration calorimetry measures the heat released or taken up as one component is titrated into another.

Take `NC(=O)c1ccc[n+]([C@@H]2O[C@H](COP(=O)(O)OP(=O)(O)OC[C@H]3O[C@@H](n4cnc5c(N)ncnc54)[C@H](OP(=O)(O)O)[C@@H]3O)[C@@H](O)[C@H]2O)c1` [NADP^+]: the KD entry was “screened for their dissociation constants (KD) to NADP^+ using ITC”.
